Test results: patent US20150231167A1, “TREATMENT OF HEMATOLOGICAL NEOPLASMS” (THOMAS JEFFERSON UNIVERSITY, priority 2012, published 2015)

Columns and labels:
Stat5a/b [1] = assay: Western blot of Stat5a/b phosphorylation in parental KCL22 cells (KCL22S); type: cell-based, human; details: various concentrations, 6 h or 16 h
Description: (§1) Exponentially growing KCL22 and KCL22R cells were treated with N6BAP at various concentrations for 6 h or 16 h after which the cells were harvested. Cell pellets were solubilized in lysis buffer [10 mM Tris-HCl (pH 7.6), 5 mM EDTA, 50 mM sodium chloride, 30 mM sodium pyrophosphate, 50 mM sodium fluoride, 1 mM sodium orthovanadate, 1% Triton X-100, 1 mM phenylmethylsulfonyl fluoride, 5 μg/ml aprotinin, 1 μg/ml pepstatin A, and 2 μg/ml leupeptin], rotated end-over-end at 4° C. for 60 min, and insoluble material was pelleted at 12,000×g for 30 min at 4° C. The protein concentrations of clarified cell lysates were determined by simplified Bradford method (Bio-Rad Laboratories, Hercules, Calif.). Western blotting of the lysates was carried out using, as primary antibodies, the following antibodies at the following concentrations: anti-phosphotyrosine-Stat5a/b (Y694/Y699) mAb (1 μg/ml, Advantex BioReagents, Conroe, Tex.), anti-Stat5ab mAb (1:250; BD Biosciences, San Jose, Calif.) or anti-actin pAb (Sigma). Anti-actin was included as a control.
(§2) Exponentially growing K562 cells were treated with N6BA for 3 h or 6 h after which the cells were harvested. […] The protein concentrations of clarified cell lysates were determined by simplified Bradford method (Bio-Rad Laboratories, Hercules, Calif.). […]

Stat5a/b [2] = assay: Western blot of Stat5a/b phosphorylation in K562 cells; type: cell-based, human
Description: (§3) Exponentially growing K562 cells were treated with 5 μM N6BAP or pimozide for 3 h after which the cells were harvested. Pimozide is a Stat5 inhibitor in leukemia cells (Nelson et al., Blood 117:3421-3429, 2011). Cell pellets were solubilized in lysis buffer [10 mM Tris-HCl (pH 7.6), 5 mM EDTA, 50 mM sodium chloride, 30 mM sodium pyrophosphate, 50 mM sodium fluoride, 1 mM sodium orthovanadate, 1% Triton X-100, 1 mM phenylmethylsulfonyl fluoride, 5 μg/ml aprotinin, 1 μg/ml pepstatin A, and 2 μg/ml leupeptin], rotated end-over-end at 4° C. for 60 min, and insoluble material was pelleted at 12,000×g for 30 min at 4° C. The protein concentrations of clarified cell lysates were determined by simplified Bradford method (Bio-Rad Laboratories, Hercules, Calif.). Western blotting of the lysates was carried out using, as primary antibodies, the following antibodies at the following concentrations: anti-phosphotyrosine-Stat5a/b (Y694/Y699) mAb (1 μg/ml, Advantex BioReagents, Conroe, Tex.), anti-Stat5ab mAb (1:250; BD Biosciences, San Jose, Calif.), anti-human Abl mAb (Calbiochem) or anti-phosphotyrosine mAb (Millipore).
as §2

K562 cells = assay: K562 cell viability, MTS metabolic activity assay; type: cell-based, human; details: 72 h at 3.1, 6.3, 12.5, 25 and 50 μM
Description: Exponentially growing K562 cells were treated with N6BAP or the control compound C5 for 72 h at 3.1, 6.3, 12.5, 25 and 50 μM indicated concentrations. The cell viability was assessed by MTS ([…]) metabolic activity assay (CellTiter 96® AQueous Assay kit).
Exponentially growing K562 leukemia cells were treated with N6BA or the control compound C5 for 72 h at 3.1, 6.3, 12.5, 25 and 50 μM concentrations. The cell viability was assessed by MTS ([…]) metabolic activity assay (CellTiter 96® AQueous Assay kit).

Stat5 = Stat5 transcriptional activity, beta-casein promoter luciferase reporter gene assay in PC-3 cells; type: cell-based, human; details: pretreated 1 hour, 10 nM hPrl for 16 hours, firefly/Renilla luciferase
Description: Cells of the human prostate cell line PC-3 were plated into 96-well plate at the density of 2×10^5 per well. After 24 hours of plating, cells were transiently co-transfected using FuGENE6 (Roche) with 0.25 μg of each of pStat5a or pStat5b, pPr1R (prolactin receptor) plasmids, 0.5 μg of pBeta-casein-luc and 0.025 μg of pRL-TK (Renilla luciferase plasmids as an internal control. After another 24 hours of transfection, the cells were starved in serum-free medium for 8 hours, pretreated with N^6-benzyladenosine (“N6BA”), or the control compound C5, for 1 hour, and then stimulated with 10 nM human prolactin (hPrl) in the serum-free medium for additional 16 hours. The lysates were assayed for firefly and Renilla luciferase activities using the Dual-Luciferase reporter assay system (Promega). Three independent experiments were carried out in triplicate. The firefly luciferase activity was normalized to the Renilla luciferase activity of the same sample, and the mean was calculated from the parallels. From the mean values of each independent run, the overall mean and its standard deviation (S.D.) were calculated.

Stat5a/b [3] = assay: Western blot of Stat5a/b phosphorylation in imatinib-resistant KCL22 cells (KCL22R); type: cell-based, human; details: various concentrations, 6 h or 16 h
Description: as §1, §2

Stat5a = target: T1, Stat5a (Homo sapiens, UniProt P42229); assay: Stat5a dimerization, co-immunoprecipitation of FLAG- and MYC-tagged Stat5a in PC-3 cells; type: cell-based; details: pre-treated 2 h, hPrl 10 nM 30 minutes
T1 construct: expressed in transfected cells; host or cells: PC-3
T1 sequence (P42229 1-794): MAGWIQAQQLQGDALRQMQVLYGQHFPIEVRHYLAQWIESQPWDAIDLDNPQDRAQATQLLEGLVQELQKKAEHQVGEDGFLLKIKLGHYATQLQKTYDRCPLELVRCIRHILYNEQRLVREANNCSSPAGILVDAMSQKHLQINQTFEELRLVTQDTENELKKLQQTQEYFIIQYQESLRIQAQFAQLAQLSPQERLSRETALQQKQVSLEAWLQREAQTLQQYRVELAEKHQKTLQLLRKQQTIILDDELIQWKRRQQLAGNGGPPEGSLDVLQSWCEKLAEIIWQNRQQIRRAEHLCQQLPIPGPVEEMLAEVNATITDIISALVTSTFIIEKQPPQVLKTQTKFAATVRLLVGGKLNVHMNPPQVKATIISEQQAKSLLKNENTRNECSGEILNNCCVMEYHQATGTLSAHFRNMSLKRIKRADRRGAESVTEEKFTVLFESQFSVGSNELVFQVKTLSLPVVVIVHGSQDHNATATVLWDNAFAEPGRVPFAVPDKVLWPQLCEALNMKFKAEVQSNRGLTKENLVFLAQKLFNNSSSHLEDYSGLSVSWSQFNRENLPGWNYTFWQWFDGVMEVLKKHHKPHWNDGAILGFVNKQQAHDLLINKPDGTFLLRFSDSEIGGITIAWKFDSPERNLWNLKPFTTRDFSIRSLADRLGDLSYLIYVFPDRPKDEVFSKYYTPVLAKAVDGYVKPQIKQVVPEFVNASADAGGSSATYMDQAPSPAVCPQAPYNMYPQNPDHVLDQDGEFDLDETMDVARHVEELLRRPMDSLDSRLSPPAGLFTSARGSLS
Description: FLAG-tagged Stat5a and MYC-tagged Stat5a were generated as follows by standard molecular biology cloning techniques. Plasmid pCMV3-FLAG-Stat5a, pCMV3-MYC-Stat5a and pPr1R were co-transfected using FuGENE6 (Roche) into PC-3 cells (2 μg of each plasmid per 1×10^7 cells). The cells were starved for 20 hours, pre-treated with N^6-benzyladenosine for 2 h, then stimulated with hPrl (10 nM) in RPMI 1640 without serum for 30 minutes. The cell lysates were immunoprecipitated with 25 μl anti-FLAG M2 […] affinity gel (2 μg/ml, Sigma), anti-MYC pAb (1 μg/ml, Upstate) or normal rabbit serum (NRS). The primary antibodies were used in the immunoblottings at the following concentrations: anti-FLAG pAb (1:1000; Stratagene), anti-MYC mAb (1:1000; Sigma), anti-Stat5a/b mAb (1:250) (Transduction Laboratories) detected by horseradish peroxidase-conjugated secondary antibodies.
Lanes 1, 2, 4, 6 and 8 represent cells stimulated with human prolactin (Prl) for 30 minutes which induces dimerization of Stat5. Two hours prior to Prl-stimulation, the cells had been treated with DMSO (lanes 1-4), the control compound C5 (lanes 5 and 6) or N^6-benzyladenosine (lanes 7 and 8) to test whether the Stat5a/b-inhibitor compound, N6BA, would be able to inhibit dimerization of Stat5. […] It should be noted the drug effect in this study was not due to cell apoptosis induction, as the treatment time was only 2 hours.

[4] = tested on: BCR-ABL-driven human leukemic cell lines; assay: Cell cycle progression analysis (data not shown); type: cell-based
KCL22 = assay: Growth of KCL22 parent cell line, trypan blue viable cell count; type: cell-based, human; details: 5 μM; 24, 48, 72 and 96 hours
Description: (§4) KKCL22 and BV173 parent cell lines, and imatinib-resistant counterpart cell lines, were cultured in the presence culture medium without any compounds (Ctrl), DMSO (0.1%), the control compound C5 (5 μM) or N6BAP at 5 μM concentration. The imatinib-resistant lines are characterizes by the bcr-abl T315I mutation, which provides imatinib resistance. The cells were harvested at 24, 48, 72 and 96 hours, trypan blue stained and the numbers of viable cells were counted for each time-point.

BCR-ABL = target: T2, BCR-ABL (Homo sapiens, UniProt P00519); assay: Western blot of BCR-ABL phosphorylation and protein levels in K562 cells; type: cell-based; details: 5 μM, 3 h
T2 construct: endogenous in cells; host or cells: K562; the other entry of the earlier key: BCR (P11274, Breakpoint cluster region protein)
T2 sequence (P00519 with tags, fused parts or gaps): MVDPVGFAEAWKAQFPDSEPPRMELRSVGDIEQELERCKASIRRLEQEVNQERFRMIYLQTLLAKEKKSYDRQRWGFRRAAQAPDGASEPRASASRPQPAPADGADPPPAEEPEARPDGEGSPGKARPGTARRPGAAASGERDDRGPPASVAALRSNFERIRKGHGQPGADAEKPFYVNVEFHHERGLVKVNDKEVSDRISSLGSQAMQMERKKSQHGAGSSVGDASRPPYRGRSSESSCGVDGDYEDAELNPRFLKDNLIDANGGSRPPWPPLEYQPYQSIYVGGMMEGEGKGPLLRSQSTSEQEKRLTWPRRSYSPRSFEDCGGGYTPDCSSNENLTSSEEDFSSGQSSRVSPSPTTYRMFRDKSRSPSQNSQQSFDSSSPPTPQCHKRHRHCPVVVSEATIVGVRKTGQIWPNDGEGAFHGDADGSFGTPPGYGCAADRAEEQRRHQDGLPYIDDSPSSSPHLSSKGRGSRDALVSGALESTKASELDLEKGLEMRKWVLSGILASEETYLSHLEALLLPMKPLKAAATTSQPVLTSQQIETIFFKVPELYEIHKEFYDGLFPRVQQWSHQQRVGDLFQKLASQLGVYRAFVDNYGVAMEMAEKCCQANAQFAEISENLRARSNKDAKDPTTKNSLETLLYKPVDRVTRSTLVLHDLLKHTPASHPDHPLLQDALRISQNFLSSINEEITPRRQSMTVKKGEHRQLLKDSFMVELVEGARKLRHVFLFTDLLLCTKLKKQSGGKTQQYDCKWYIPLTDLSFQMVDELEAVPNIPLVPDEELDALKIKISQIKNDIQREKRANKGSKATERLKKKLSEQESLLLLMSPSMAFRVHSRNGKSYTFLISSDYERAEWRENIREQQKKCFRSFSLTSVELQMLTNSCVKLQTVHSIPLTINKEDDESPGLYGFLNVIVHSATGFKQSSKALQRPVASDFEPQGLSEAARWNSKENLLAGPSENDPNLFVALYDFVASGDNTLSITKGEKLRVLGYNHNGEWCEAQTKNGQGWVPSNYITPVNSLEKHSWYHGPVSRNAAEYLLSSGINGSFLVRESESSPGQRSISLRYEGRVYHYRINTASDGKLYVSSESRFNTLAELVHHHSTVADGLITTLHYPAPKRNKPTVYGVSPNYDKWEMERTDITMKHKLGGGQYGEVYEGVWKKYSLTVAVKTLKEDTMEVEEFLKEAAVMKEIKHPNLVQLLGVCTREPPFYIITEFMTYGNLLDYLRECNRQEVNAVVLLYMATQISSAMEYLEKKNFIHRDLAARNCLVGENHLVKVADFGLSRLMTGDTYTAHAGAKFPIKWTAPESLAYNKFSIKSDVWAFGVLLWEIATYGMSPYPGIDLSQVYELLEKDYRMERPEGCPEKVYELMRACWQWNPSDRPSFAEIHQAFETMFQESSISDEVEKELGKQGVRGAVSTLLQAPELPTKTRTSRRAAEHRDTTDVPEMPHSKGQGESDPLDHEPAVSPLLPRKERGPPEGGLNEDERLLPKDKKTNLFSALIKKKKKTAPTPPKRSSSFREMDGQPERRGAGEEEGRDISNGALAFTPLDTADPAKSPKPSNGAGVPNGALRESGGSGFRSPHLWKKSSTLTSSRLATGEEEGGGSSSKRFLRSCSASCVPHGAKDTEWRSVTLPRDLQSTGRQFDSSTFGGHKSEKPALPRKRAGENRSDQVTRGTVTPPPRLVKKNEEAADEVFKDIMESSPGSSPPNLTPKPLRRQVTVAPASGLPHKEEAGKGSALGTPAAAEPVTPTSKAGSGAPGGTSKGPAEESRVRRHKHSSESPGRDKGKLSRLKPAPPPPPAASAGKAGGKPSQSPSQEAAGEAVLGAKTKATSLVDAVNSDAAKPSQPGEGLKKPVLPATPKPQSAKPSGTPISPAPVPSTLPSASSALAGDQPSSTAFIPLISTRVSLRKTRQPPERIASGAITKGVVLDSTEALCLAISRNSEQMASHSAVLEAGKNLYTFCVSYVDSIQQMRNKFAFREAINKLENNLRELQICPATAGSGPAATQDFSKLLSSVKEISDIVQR
Description: as §3

KCL22 T315I = assay: Growth of imatinib-resistant KCL22 T315I line, trypan blue viable cell count; type: cell-based, human; details: 5 μM; 24, 48, 72 and 96 hours
Description: as §4

BV173 = assay: Growth of BV173 parent cell line, trypan blue viable cell count; type: cell-based, human; details: 5 μM; 24, 48, 72 and 96 hours
Description: as §4

[5] = tested on: imatinib-resistant K562 line; assay: Growth of imatinib-resistant K562 line, trypan blue viable cell count; type: cell-based, human; details: 5 μM; 24, 48, 72 and 96 hours
Description: (§5) The K562 parent cell line and an imatinib-resistant K562 line were cultured in the presence of culture medium without any compounds (Ctrl), DMSO (0.1%), the control compound C5 (5 μM) or N6BAP at 5 μM concentration. The cells were harvested at 24, 48, 72 and 96 hours, trypan blue stained and the numbers of viable cells were counted for each time-point.

K562 parent cell line = assay: Growth of K562 parent cell line, trypan blue viable cell count; type: cell-based, human; details: 5 μM; 24, 48, 72 and 96 hours
Description: as §5

BV173 T315I = assay: Growth of imatinib-resistant BV173 T315I line, trypan blue viable cell count; type: cell-based, human; details: 5 μM; 24, 48, 72 and 96 hours
Description: as §4

Structure (SMILES) | phosphorylation of Stat5 (Stat5a/b [1]) | phosphorylation of Stat5 (Stat5a/b [2]; indicated concentrations, 3 h or 6 h) | number of viable K562 cells (MTS) (K562 cells) | transcriptional activity of Stat5 (Stat5) | phosphorylation of Stat5 (Stat5a/b [3]) | Stat5a dimerization (Stat5a) | apoptotic death (cell cycle progression analysis) [4] | growth of parental cell line KCL22 (KCL22) | BCR-ABL protein levels (BCR-ABL) | phosphorylation of BCR-ABL (BCR-ABL; anti-phosphotyrosine mAb) | growth of imatinib-resistant KCL22 T315I (KCL22 T315I) | growth of parental cell line BV173 (BV173) | phosphorylation of Stat5 (Stat5a/b [2]; 5 μM, 3 h, Western blot anti-pYStat5) | growth of the imatinib-resistant K562 cell line [5] | growth of the parental K562 line (K562 parent cell line) | growth of imatinib-resistant BV173 T315I (BV173 T315I)
OC[C@H]1O[C@@H](n2cnc3c(NCc4ccccc4)ncnc32)[C@H](O)[C@@H]1O [N6BA, N^6-benzyladenosine] | inhibits phosphorylation of Stat5 | inhibits phosphorylation of Stat5 | decreased the number of K562 cells | inhibits transcriptional activity of Stat5 | inhibits phosphorylation of Stat5 | effectively inhibited Stat5a dimerization | – | – | – | – | – | – | – | – | – | –
Nc1nc(SCc2cccnc2)[nH]c(=O)c1NC(=O)c1ccco1 [C5, reference compound] | – | – | – | – | – | did not inhibit dimerization of Stat5a | – | – | – | – | – | – | – | – | – | –
O=P(O)(O)OC[C@H]1O[C@@H](n2cnc3c(NCc4ccccc4)ncnc32)[C@H](O)[C@@H]1O [N6BAP, N^6-benzyladenosine-5′-monophosphate] | blocks phosphorylation of Stat5 | – | reduces the number of viable K562 human leukemia cells | – | blocks phosphorylation of Stat5 | – | induced apoptotic death | blocked not only the growth of the parental cell lines | did not affect | did not affect phosphorylation of BCR-ABL | blocked the growth of the corresponding imatinib-resistant cell lines | blocked not only the growth of the parental cell lines | blocks phosphorylation of Stat5 | blocked the growth of the imatinib-resistant cell line | blocked not only the growth of the parental K562 line | blocked the growth of the corresponding imatinib-resistant cell lines
